Assay results from publication PMC8718748, “Molecular Dissection of the Primase and Polymerase Activities of Deep-Sea Phage NrS-1 Primase-Polymerase” (Frontiers in Microbiology, 2021).

Key:
[1] = molecular target: T1, N300 (Nitratiruptor phage NrS-1, UniProt M5AAG8); test: X-ray crystal structure of complex (SeMet, SAD, […] A); type: binding; settings: Ca2+ (200 mM calcium acetate in crystals), pH 7.0; active site, 3'-site nucleotide
T1 construct: gene 28; N-terminal 300 residues (Prim/Pol domain + helix bundle domain) of NrSPol; pET28b, 6xHis with TEV site, tag cut for crystals (SeMet for ddCTP crystal); E. coli
T1 sequence (M5AAG8 1-300): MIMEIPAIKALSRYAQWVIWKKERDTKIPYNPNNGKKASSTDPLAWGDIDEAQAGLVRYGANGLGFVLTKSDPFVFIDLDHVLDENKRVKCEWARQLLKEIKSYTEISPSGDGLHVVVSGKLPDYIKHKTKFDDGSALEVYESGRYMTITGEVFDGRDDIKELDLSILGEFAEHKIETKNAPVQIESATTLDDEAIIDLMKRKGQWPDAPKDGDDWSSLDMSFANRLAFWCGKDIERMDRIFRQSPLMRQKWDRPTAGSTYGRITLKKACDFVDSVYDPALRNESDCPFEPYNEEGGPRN

[2] = molecular target: T1, N300; test: X-ray crystal structure of complex (native, […] A); type: binding; settings: Mg2+; crystallised with ddCTP and ssDNA, pH 4.5; active site

SMILES	X-ray crystal structure of complex (SeMet, SAD, 2.24 A) [1]	X-ray crystal structure of complex (native, 1.86 A) [2]
Nc1ccn([C@H]2CC[C@@H](COP(=O)(O)OP(=O)(O)OP(=O)(O)O)O2)c(=O)n1 [ddCTP]	we determined the crystal structures of N300 in complex with ddCTP	–
O=P(O)(O)OP(=O)(O)O [pyrophosphate]	–	a pyrophosphate (PPi) occupies the active site instead of ddCTP
